Results as given in patent US11945784B2, “IRE1 small molecule inhibitors” (Cornell University, priority 2018, dated 2024).

Legend:
293T cells = experiment: Growth assay (cytotoxicity); assay type: cell-based; conditions: Homo sapiens, HEK-293T, 48 h, 2 day incubation, read-out: percentage growth at 5 uM
Procedure: A growth assay is performed to evaluate the compounds disclosed in Table 1 for cytotoxicity. Briefly, 5,000,000 293T cells are resuspended in 18 mL of cDMEM for a final concentration of 277,777 cells/mL. 180 μL (50,000 cells) cDMEM was seeded per well in 96 well flat bottom plate, with some wells left unfilled. In a 96 well plate, […] cDMEM and 1 uL of any one of the compounds disclosed herein. 133.3 uL cDMEM is added to wells 1, 2, 3, 5, 6, 7, 9, 10, and 11 of row A. Wells are serially diluted with 66.7 uL (highest concentration on right, lowest on left) to the total concentrations shown below. 20 uL of each dilution is transferred in duplicate to the cells plated in the 96-well plate. The plate is then placed in a humidified chamber for a 2 day incubation, and then photographed (media is more yellow in wells with potent cell growth). Absorbance is then measured at […] (lower for more acidic media) and […] (higher for more acidic media).

IRE1α [1] = molecular target: T1, IRE1α (Homo sapiens (Human), UniProt O75460); experiment: In vitro luciferase assay (IRE1α Endoribonuclease Nanoluciferase Assay); assay type: cell-based; conditions: 293T cells, XBP1 luciferase reporter
Procedure: Compounds disclosed herein were assessed for disruption of IRE-1 signaling using a IRE1α Endoribonuclease Nanoluciferase Assay. Briefly, 2.5×10^6 293T cells were seeded in a 10 cm^2 tissue culture plate. About 24 hours later, the cells were transfected with Effectene. In a 15 mL Tube, the following was added: 2 μg XBP1 luciferase reporter plasmid (PGK-Luc2-P2A-XBP1u-Nanoluciferase-PEST); 300 μl EC buffer; and 16 μl Enhancer, followed by incubation at room temp for 5 minutes. Next, 60 μl Effectene (Qiagen 301427) was added, followed by incubation at room temperature for 10 minutes. 2.6 mL cDMEM media was added. Old media was aspirated from the cells, followed by addition of 7 mL fresh media. Full transfection mixture was added dropwise to cells. Cells were incubated for 6 hours, followed by trypsinization, centrifugation and resuspension in 11 mL media. 100 uL of cells were plated per a well in a 96 well plate. A day later, ER stressors of choice+/−inhibitors were added. To harvest, media was aspirated from cells completely, then 50 uL 1× passive lysis buffer (Promega: E1941) was added per well and put on shaker (300 rpm) for 30 minutes at room temperature. Cells were centrifuged, and 15 uL sample per well was added to a new, opaque white 384 well plate (Corning 3570). 15 uL OneGlo (nanoluciferase kit, Promega N1630) was added. Plates were spun down, placed on shaker (300 rpm) for 10 minutes. Plates were read on luminometer, 1000 ms integration time per well. 15 uL Stop and Glo (nanoluciferase kit) was added. Plates were spun down, placed on shaker (300 rpm) for 10 minutes. Plates were read on luminometer, 1000 ms second integration time per well. Recordings are provided below in Table 4

IRE1α [2] = molecular target: T1, IRE1α; experiment: In vitro FRET assay; assay type: biochemical; conditions: XBP1 RNA probe
Procedure: In vitro FRET assay was performed to evaluate the ability of select compounds to inhibit IRE1, the results of which are summarized in Table 3. To perform the in vitro FRET assay, 1× complete assay buffer (CAB; […], 50 mM sodium citrate pH 7.15, 1 mM magnesium acetate, 0.02% tween 20) was used to dilute SignalChem IRE1α protein to a final concentration of 2 nM. Selected compounds were serially diluted with DMSO in a non-binding black 384-well plate for a total of 15 ul in each well. 2 ul of the serially diluted compound or DMSO control were then added to new wells containing 98 ul of 1×CAB, for a total volume of 100 ul, 10 ul of which were then transferred to wells of a new plate. 5 ul of the diluted IRE1α was then added to each well. 5 ul of a […] XBP1 RNA probe was then added to each well. Fluorescence was then read over 30 minutes in kinetic mode (485/515 nm).
Two RNA probes were used, XBP1 wildtype (SEQ ID NO: 2) which is able to be spliced by active IRE1α or XBP1 mutant (SEQ ID NO: 3) which is unable to be spliced. Each probe contained a 5′ 6-FAM modification and a 3′ IOWA Black FQ modification.
A second FRET assay was performed to assess ATP-mediated inhibition. In this case, compounds and IRE1α were prepared and combined as discussed above, with the addition of ATP up to 1 mM final concentration. This mixture was incubated at room temperature for 60 minutes and then 5 ul of 400 nM XBP1 wildtype or mutant RNA probe was added. Plates were then read over 30 minutes in kinetic mode (485/515 nm) and rate of fluorescence increase calculated for different compound dilutions to determine IC50 (Table 3).

T1 sequence (O75460 19-977): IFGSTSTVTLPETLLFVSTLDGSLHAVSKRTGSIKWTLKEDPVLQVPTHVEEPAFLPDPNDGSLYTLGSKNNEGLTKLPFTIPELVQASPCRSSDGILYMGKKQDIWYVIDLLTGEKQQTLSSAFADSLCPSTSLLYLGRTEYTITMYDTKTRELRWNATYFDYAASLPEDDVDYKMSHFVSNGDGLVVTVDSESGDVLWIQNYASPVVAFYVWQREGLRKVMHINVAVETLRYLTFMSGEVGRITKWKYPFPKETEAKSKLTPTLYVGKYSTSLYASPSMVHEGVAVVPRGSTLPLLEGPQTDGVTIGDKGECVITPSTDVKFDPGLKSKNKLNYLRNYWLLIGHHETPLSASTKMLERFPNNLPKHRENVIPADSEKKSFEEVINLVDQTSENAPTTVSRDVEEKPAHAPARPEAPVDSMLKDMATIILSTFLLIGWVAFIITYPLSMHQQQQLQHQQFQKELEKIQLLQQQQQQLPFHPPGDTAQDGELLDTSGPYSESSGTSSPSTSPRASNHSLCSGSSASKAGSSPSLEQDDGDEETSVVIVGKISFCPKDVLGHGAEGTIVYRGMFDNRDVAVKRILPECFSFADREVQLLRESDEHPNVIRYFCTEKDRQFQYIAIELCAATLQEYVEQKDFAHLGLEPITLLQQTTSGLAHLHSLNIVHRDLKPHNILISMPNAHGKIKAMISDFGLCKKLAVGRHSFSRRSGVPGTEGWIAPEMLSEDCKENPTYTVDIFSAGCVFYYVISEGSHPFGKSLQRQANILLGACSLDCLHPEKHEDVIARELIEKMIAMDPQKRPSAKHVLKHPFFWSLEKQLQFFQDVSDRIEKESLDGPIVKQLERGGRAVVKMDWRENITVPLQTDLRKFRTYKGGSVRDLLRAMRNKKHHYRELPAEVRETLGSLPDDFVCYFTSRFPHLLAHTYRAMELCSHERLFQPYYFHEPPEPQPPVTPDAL

Row | Compound | viability at 5 µM (293T cells) [%] | EC50 (IRE1α [1]) [nM] | IC50 (IRE1α [2]) [nM]
1 | NC1CCC(Nc2ncc(CCc3ccc(NS(=O)(=O)c4ccccc4Cl)c(F)c3)cn2)CC1 (stereo not shown) [Compound 8, N-(4-(2-(2-(((1r,4r)-4-aminocyclohexyl)amino)pyrimidin-5-yl)ethyl)-2-fluorophenyl)-2-chlorobenzenesulfonamide] | > 75 | 100 to 10000 | ≤ 1
2 | Cc1cc(NS(=O)(=O)c2ccccc2Cl)cc(F)c1/C=C/c1cnc(NC2CCC(N(C)C)CC2)nc1 (stereo not shown) [Compound 27, 2-chloro-N-(4-((E)-2-(2-(((1r,4r)-4-(dimethylamino)cyclohexyl)amino)pyrimidin-5-yl)vinyl)-3-fluoro-5-methylphenyl)benzenesulfonamide] | > 50 | ≤ 5 | ≤ 1
3 | Cc1nc(NS(=O)(=O)c2ccccc2Cl)c(F)cc1/C=C/c1cnc(NC2CCC(N(C)C)CC2)nc1 (stereo not shown) [Compound 25, 2-chloro-N-(5-((E)-2-(2-(((1r,4r)-4-(dimethylamino)cyclohexyl)amino)pyrimidin-5-yl)vinyl)-3-fluoro-6-methylpyridin-2-yl)benzenesulfonamide] | > 75 | 5 to 50 | ≤ 1
4 | COc1nc(NS(=O)(=O)c2ccccc2Cl)ccc1CCc1cnc(NC2CCC(N)CC2)nc1 (stereo not shown) [Compound 10, N-(5-(2-(2-(((1r,4r)-4-aminocyclohexyl)amino)pyrimidin-5-yl)ethyl)-6-methoxypyridin-2-yl)-2-chlorobenzenesulfonamide] | > 75 | – | ≤ 1
5 | COc1nc(NS(=O)(=O)c2ccc(F)c(F)c2Cl)ccc1/C=C/c1cnc(NC2CCC(N(C)C)CC2)nc1 (stereo not shown) [Compound 41, 2-chloro-N-(5-((E)-2-(2-(((1r,4r)-4-(dimethylamino)cyclohexyl)amino)pyrimidin-5-yl)vinyl)-6-methoxypyridin-2-yl)-3,4-difluorobenzenesulfonamide] | > 75 | 5 to 50 | ≤ 1
6 | CCc1nc(NS(=O)(=O)c2ccccc2Cl)ccc1/C=C/c1cnc(NC2CCC(NC)CC2)nc1 (stereo not shown) [Compound 47, 2-chloro-N-(6-ethyl-5-((E)-2-(2-(((1r,4r)-4-(methylamino)cyclohexyl)amino)pyrimidin-5-yl)vinyl)pyridin-2-yl)benzenesulfonamide] | > 75 | 5 to 50 | ≤ 1
7 | CCc1nc(NS(=O)(=O)c2ccccc2Cl)ccc1C=Cc1cnc(NC2CCC(N)CC2)nc1 (stereo not shown) [Compound 45, N-(5-(2-(2-((1r,4r)-4-aminocyclohexyl)amino)pyrimidin-5-yl)vinyl)-6-ethylpyridin-2-yl)-2-chlorobenzenesulfonamide] | > 75 | 5 to 50 | ≤ 1
8 | Cc1cc(NS(=O)(=O)c2ccccc2Cl)ccc1/C=C/c1cnc(NC2CCC(N(C)C)CC2)nc1 (stereo not shown) [Compound 26, 2-chloro-N-(4-((E)-2-(2-(((1r,4r)-4-(dimethylamino)cyclohexyl)amino)pyrimidin-5-yl)vinyl)-3-methylphenyl)benzenesulfonamide] | > 35 | ≤ 5 | ≤ 1
9 | Cc1nc(NS(=O)(=O)c2ccccc2Cl)c(F)cc1CCc1cnc(NC2CCC(N(C)C)CC2)nc1 (stereo not shown) [Compound 24, 2-chloro-N-(5-(2-(2-(((1r,4r)-4-(dimethylamino)cyclohexyl)amino)pyrimidin-5-yl)ethyl)-3-fluoro-6-methylpyridin-2-yl)benzenesulfonamide] | > 75 | – | 1 to 5
10 | COc1nc(NS(=O)(=O)c2ccccc2Cl)ccc1CCc1cnc(NC2CCC(N(C)C)CC2)nc1 (stereo not shown) [Compound 19, 2-chloro-N-(5-(2-(2-(((1r,4r)-4-(dimethylamino)cyclohexyl)amino)pyrimidin-5-yl)ethyl)-6-methoxypyridin-2-yl)benzenesulfonamide] | > 75 | 5 to 50 | ≤ 1
11 | COc1cc(NS(=O)(=O)c2ccccc2Cl)ccc1/C=C/c1cnc(NC2CCC(N(C)C)CC2)nc1 (stereo not shown) [Compound 55, 2-chloro-N-(4-((E)-2-(2-(((1r,4r)-4-(dimethylamino)cyclohexyl)amino)pyrimidin-5-yl)vinyl)-3-methoxyphenyl)benzenesulfonamide] | – | ≤ 5 | ≤ 1
12 | Cc1nc(NS(=O)(=O)c2ccc(F)cc2Cl)ccc1/C=C/c1cnc(NC2CCC(N(C)C)CC2)nc1 (stereo not shown) [Compound 31, 2-chloro-N-(5-((E)-2-(2-(((1r,4r)-4-(dimethylamino)cyclohexyl)amino)pyrimidin-5-yl)vinyl)-6-methylpyridin-2-yl)-4-fluorobenzenesulfonamide] | – | ≤ 5 | ≤ 1
13 | NC1CCC(Nc2ncc(/C=C/c3ccc(NS(=O)(=O)c4ccccc4Cl)nn3)cn2)CC1 (stereo not shown) [Compound 2, N-(6-((E)-2-(2-(((1r,4r)-4-aminocyclohexyl)amino)pyrimidin-5-yl)vinyl)pyridazin-3-yl)-2-chlorobenzenesulfonamide] | > 75 | 50 to 100 | –
14 | Cc1nc(NS(=O)(=O)c2ccc(F)c(F)c2Cl)ccc1/C=C/c1cnc(NC2CCC(N(C)C)CC2)nc1 (stereo not shown) [Compound 38, 2-chloro-N-(5-((E)-2-(2-(((1r,4r)-4-(dimethylamino)cyclohexyl)amino)pyrimidin-5-yl)vinyl)-6-methylpyridin-2-yl)-3,4-difluorobenzenesulfonamide] | – | 5 to 50 | ≤ 1
15 | CN(C)C1CCC(Nc2ncc(/C=C/c3ccc(NS(=O)(=O)c4ccccc4Cl)cc3)cn2)CC1 (stereo not shown) [Compound 34, 2-chloro-N-(4-((E)-2-(2-(((1r,4r)-4-(dimethylamino)cyclohexyl)amino)pyrimidin-5-yl)vinyl)phenyl)benzenesulfonamide] | – | ≤ 5 | ≤ 1
16 | CN(C)C1CCC(Nc2ncc(/C=C/c3ccc(NS(=O)(=O)c4ccccc4Cl)nc3)cn2)CC1 (stereo not shown) [Compound 36, 2-chloro-N-(5-((E)-2-(2-(((1r,4r)-4-(dimethylamino)cyclohexyl)amino)pyrimidin-5-yl)vinyl)pyridin-2-yl)benzenesulfonamide] | – | ≤ 5 | ≤ 1
17 | CCCc1nc(NC2CCC(N)CC2)ncc1/C=C/c1ccc(NS(=O)(=O)c2ccccc2Cl)cc1 (stereo not shown) [Compound 4, N-(4-((E)-2-(2-(((1r,4r)-4-aminocyclohexyl)amino)-4-propylpyrimidin-5-yl)vinyl)phenyl)-2-chlorobenzenesulfonamide] | – | 50 to 100 | 1 to 5
18 | COc1nc(NS(=O)(=O)c2ccccc2Cl)ccc1/C=C/c1cnc(NC2CCC(N)CC2)nc1 (stereo not shown) [Compound 9, N-(5-((E)-2-(2-(((1r,4r)-4-aminocyclohexyl)amino)pyrimidin-5-yl)vinyl)-6-methoxypyridin-2-yl)-2-chlorobenzenesulfonamide] | – | ≤ 5 | ≤ 1
19 | CCc1cc(NS(=O)(=O)c2ccccc2Cl)cnc1CCc1cnc(NC2CCC(N)CC2)nc1 (stereo not shown) [Compound 16, N-(6-(2-(2-(((1r,4r)-4-aminocyclohexyl)amino)pyrimidin-5-yl)ethyl)-5-ethylpyridin-3-yl)-2-chlorobenzenesulfonamide] | – | 100 to 10000 | ≤ 1
